Source: US7223777B2, “Compounds for the management of aging-related and diabetic vascular complications, process for their preparation, therapeutic and cosmetic uses thereof” (Torrent Pharmaceuticals Ltd., priority 2001, dated 2007)

Key:
[1] = biological target: T1, AGE-BSA (Bos taurus, UniProt P02769); assay: In-vitro screening for AGE-breaking activity (AGE-BSA incubated with compound; ELISA / gel permeation chromatography); format: biochemical, bovine; conditions: 37° C., 24 hours
T1 construct: Bovine serum albumin (fraction V) (BSA); from tissue; host or cells: bovine serum (fraction V); own knowledge: fraction V is the albumin fraction of plasma/serum
T1 sequence (P02769 25-607): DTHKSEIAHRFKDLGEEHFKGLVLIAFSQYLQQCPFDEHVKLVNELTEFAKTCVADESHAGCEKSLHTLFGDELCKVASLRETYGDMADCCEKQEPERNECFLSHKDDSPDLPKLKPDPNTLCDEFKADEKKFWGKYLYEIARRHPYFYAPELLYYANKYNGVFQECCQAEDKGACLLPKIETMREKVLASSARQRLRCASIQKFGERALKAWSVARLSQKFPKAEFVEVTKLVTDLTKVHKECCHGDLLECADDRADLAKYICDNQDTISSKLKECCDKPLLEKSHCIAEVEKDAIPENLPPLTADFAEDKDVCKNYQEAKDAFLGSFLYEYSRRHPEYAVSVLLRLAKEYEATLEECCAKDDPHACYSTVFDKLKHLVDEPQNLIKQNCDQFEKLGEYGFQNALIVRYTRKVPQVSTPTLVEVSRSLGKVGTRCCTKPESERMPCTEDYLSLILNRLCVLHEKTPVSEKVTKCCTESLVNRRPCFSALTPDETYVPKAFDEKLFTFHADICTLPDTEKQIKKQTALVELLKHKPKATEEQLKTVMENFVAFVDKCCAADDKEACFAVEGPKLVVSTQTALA
Procedure: Fluorescence was used as the criteria to monitor the increased AGE formation.
160 mg/ml of protein, bovine serum albumin, BSA and 1.6M glucose sugar were dissolved in phosphate buffered saline, PBS. Sodium azide was added at 0.02% concentration as a preservative. The solution was filtered asceptically through a […] filter and kept for aging at 37° C. for 16 weeks. After 16 weeks the solution was dialyzed against PBS, aliquoted and stored at −20° C.
To determine the AGE breaking activity, 10 μg/ml of the 16 weeks AGE-BSA was incubated with different concentrations of the test compounds at 37° C. for 24 hours and AGE breaking activity of the test compounds by ELISA was determined.
• 1. Different concentrations of 16 weeks AGE-BSA were coated on a microtiter plate as standard. Each concentration is coated in triplicates. • 2. The test samples were coated on microtiter plate at a concentration of 5 ng. to 20 ng per well in triplicates. • 3. The plate was incubated at 37° C. for one hour. • 4. After incubation the plate was washed with PBST (PBS with 0.05% Tween 20). • 5. Blocking with 5% skimmed milk in PBS at 37° C. for one hour was done. • 6. The plate was washed with PBST. • 7. Primary antibody against AGE-BSA was added and the plate is incubated at 37° C. for one hour. • 8. The plate was washed with PBST. • 9. Secondary antibody anti rabbit HRPO (Horse-Radish Per Oxidase) conjugate was added and the plate is incubated at 37° C. for one hour. • 10. The plate was washed with PBST. • 11. Colour development with OPD (orthophenylenediamine dihydrochloride) and hydrogen peroxide was done. • 12. OD (optical density) at (450 nm reading –620 nm reading) was measured after incubation at 37° C. for 15 minutes with Microplate ELISA Reader.
The breaker activity of the compounds were determined by the following formula:
[formula] OD450-620Control=Absorbance of 20 ng AGE-BSA after incubation at 37° C. for 24 hours without test compound. OD450-620Test=Absorbance of 20 ng AGE-BSA after incubation at 37° C. for 24 hours with required concentration of test compound.
Gel Permeation Chromatography based method was used to determine AGE breaking activities of the compounds.
Separation by Gel Permeation Chromatography (GPC) depends on differences in the size, more precisely the hydrodynamic volume, of the proteins in a sample. […] The pores of a column particle are differentially accessible to smaller particles, depending on their size. This volume of the column is called (V1). The total accessible volume (Vt) is the sum of the volume outside the particles (V0) and the volume accessible inside the particles (V1): Vt=V0+Vi Therefore, in a typical Gel Permeation Chromatography (GPC) run, high molecular weight molecules elute at a lower retention time whereas lower molecular weight molecules are retained for longer time. For the purpose of quantification, the area under the curve for the respective molecule is recorded. The same principle has been applied in the in vitro screening of the molecules of instant invention. Highly cross-linked Advanced Glycosylated Endproducts (AGE) were prepared in vitro by incubating Bovine Serum Albumin (BSA) with glucose for a period of 16 weeks. […] The reduction in the area of AGE-BSA incubated in the presence of AGE breaker as compared to that of control AGE BSA (incubated in absence of AGE breaker) gives an estimate of the AGE breaker activity of the drug. In order to check the non-specific activity of the molecule, a similar experiment was repeated with BSA as well. Methodology:
A known concentration of 16-week AGE-BSA was incubated with and without a predetermined concentration of the drug at 37° C. for 24 hours in clean transparent glass test tubes. The solution without drug served as the control and the solution containing the drug was treated as the test sample.
Gel permeation chromatography was performed on equal volumes of control AGE-BSA preparation and solution of AGE-BSA treated with drug. […]

[2] = Free radical scavenging activity on ABTS radical cation; format: biochemical
Procedure: This method measures the relative ability of free radical scavenging substances to scavenge the ABTS.^+ i.e. 2,2-Azino-bis-(3-ethyl benzo thiazoline-6-sulfonate) radical cation as compared to a standard amount of standard or free radical scavengers antioxidants. Incubation of ABTS with Peroxidase (metmyoglobin) and hydrogen peroxide results in the production of radical cation ABTS.^+. This species is blue-green in colour and can be detected at 730 nm. Antioxidants or free radical scavengers in the added sample that causes suppression of the color to a degree that is proportional to their concentration.
Preparation of Buffer Solutions: • a. Phosphate Citrate Buffer (pH 5.0): 48.5 ml of 0.1M citric acid with sufficient 0.2M disodium hydrogen phosphate to produce 100 ml. • b. Phosphate Buffer Saline (PBS): Dissolve 40.0 g of NaCl, 1.0 g of KCl, 1.0 g of KH2PO4 and 3.05 g of Na2HPO4 in 1 liter milli-Q water. Dilute 200 ml of above solution to 1 liter with milli-Q water (pH 7.4–7.6).
Preparation of ABTS Stock Solution (2 mM): • 1 tablet (10 mg) was dissolved in phosphate citrate buffer (pH 5.0) to give a 2 mM solution.
Preparation of Horse Radish Peroxidase Working Solution: • 0.1 mg was dissolved in 10 ml of phosphate buffer saline, 1 ml of this solution was diluted to 100 ml with PBS.
Preparation of Hydrogen Peroxide (1.08 mM) Solution: • 12 μl of Hydrogen Peroxide (30% w/v) was diluted to 100 ml with PBS.
Preparation of Drug Solutions: • 0.1 mM of stock solution of the drug was prepared which was serially diluted in PBS to get 0.05 mM, 0.025 mM and 0.0125 mM solutions.
Preparation of ABTS Radical Stock Solution: • To 2 ml of ABTS stock solution, 1 ml of horseradish Peroxidase working solution was added. • As soon as 2 ml of Hydrogen peroxide solution was added to the above solution, blue-green colour of the ABTS radicals appeared. This solution was incubated at 30° C. for 30 min in order to ensure the completion reaction. Make up the volume to 10 ml with PBS.
Preparation of Control Solution: • 900 μl of ABTS radical stock solution were added to an eppendorf tube. To it were added 100 μl of PBS solution.
Preparation of Test Solution: • 900 μl of ABTS radical stock solutions were added to different eppendorf tubes. To it were added 100 μl of various concentrations of drug solution.
Measurement of Absorbance (O.D): • The absorbance of control and test samples was recorded immediately at 730 nm taking PBS as blank.
Calculation: • The percent antioxidant activity was calculated according to the formula: % Antioxidant activity=100−[O.D of test sample/O.D of control×100]

Q: With `O=C(C[n+]1cccc(-c2cc(COc3ccccc3)n[nH]2)c1)N1CCC(Cc2ccccc2)CC1.[Br-]` [Compound 16, 1-(2-(4-Benzyl-1-piperidinyl)-2-oxoethyl) 3-[(3-phenoxymethyl)pyrazol-5-yl]-pyridinium bromide] as the compound, how does the “% Breakage” value ([1]; 10 mM compound) read?
A: Its value is 95.51%.

Q: With `O=C(C[n+]1cccc(-c2cc(Cc3ccccc3)n[nH]2)c1)c1ccccc1.[Br-]` [Compound 14, 1-(2-Phenyl-2-oxoethyl)-3-[(3-phenylmethyl)pyrazol-5-yl]-pyridinium bromide] as the compound, how does the “% Breakage” value ([1]; 10 mM compound) read?
A: The value was 58.14%.

Q: Which results are given for “1-(2-Thien-2′-yl-2-oxoethyl)-3-[(1-cyclohexyl-3-phenoxymethyl)pyrazol-5-yl]pyridinium chloride [Compound 38]”?
A: Relative Free Radical Scavenging Activity (%) on ABTS ([2]; 12.5 μM): 27.70%; Relative Free Radical Scavenging Activity (%) on ABTS ([2]; 25.0 μM): 44.78%; Relative Free Radical Scavenging Activity (%) on ABTS ([2]; 50.0 μM): 61.98%; Relative Free Radical Scavenging Activity (%) on ABTS ([2]; 100.0 μM): 66.92%

Q: Which “% Breakage” value ([1]; 10 mM compound) does the source give for “1-(2-Cyclopropylamino-2-oxoethyl)-3-[(3-(2-cyclohexylethyl)pyrazol-5-yl]pyridinium chloride [Compound 21]” here?
A: Its value is 93.43%.

Q: With `O=C(C[n+]1cccc(-c2cc(COc3ccccc3)n[nH]2)c1)NC1CC1.[Cl-]` [Compound 31, 1-(2-Cyclopropylamino-2-oxoethyl)-3-[(3-phenoxymethyl)pyrazol-5-yl]pyridinium chloride] as the compound, how does the “% Breakage” value ([1]; 10 mM compound) read?
A: Its value is 45.72%.

Q: For `Cc1cc(C)n(Cc2cc(-c3ccc[n+](CC(=O)NC4CC4)c3)[nH]n2)n1.[Br-]` [Compound 7, 1-[2-(Cyclopropylamino)-2-oxoethyl]3-[3-{(3,5-dimethylpyrazol-1-yl)methyl}-pyrazol-5-yl]-pyridinium bromide], which “% Breakage” value ([1]; 1.0 mM compound) is on record?
A: The value was 51.72%.

Q: What does the source list for `Cc1cc(C)n(Cc2cc(-c3ccc[n+](CC(=O)c4cc([N+](=O)[O-])cs4)c3)n(C3CCCCC3)n2)n1.[Br-]` [Compound 27, 1-(2-(4-nitro-2-thienyl)-2-oxoethyl)-3-[(1-cyclohexyl-3-(3,5-dimethylpyrazol-1-yl)-methyl)pyrazol-5-yl]pyridinium bromide]?
A: Relative Free Radical Scavenging Activity (%) on ABTS ([2]; 12.5 μM): 16.16%; Relative Free Radical Scavenging Activity (%) on ABTS ([2]; 25.0 μM): 27.12%; Relative Free Radical Scavenging Activity (%) on ABTS ([2]; 50.0 μM): 39.05%; Relative Free Radical Scavenging Activity (%) on ABTS ([2]; 100.0 μM): 51.04%; % Breakage ([1]; 10 mM compound): 86.98%

Q: For `O=C(C[n+]1cccc(-c2cc(Cc3ccccc3)n[nH]2)c1)NC12CC3CC(CC(C3)C1)C2.[Cl-]` [Compound 25, 1-{2-(1-Adamantylamino-2-oxoethyl)}-3-[(3-phenylmethyl)pyrazol-5-yl]pyridinium chloride], which “% Breakage” value ([1]; 5 mM compound) is on record?
A: Its value is 98.59%.

Q: Which “Relative Free Radical Scavenging Activity (%) on ABTS” value ([2]; 12.5 μM) does the source give for `Cc1cc(C)n(Cc2cc(-c3ccc[n+](CC(=O)c4cc([N+](=O)[O-])cs4)c3)[nH]n2)n1.[Br-]` [Compound 8, 1-{2-(4-Nitro-2-thienyl)-2-oxoethyl}-3-[3{(3,5-dimethylpyrazol-1-yl)methyl}-pyrazol-5-yl]-pyridinium bromide] here?
A: The value was 22.22%.

Q: And the “Relative Free Radical Scavenging Activity (%) on ABTS” value ([2]; 25.0 μM)?
A: Its value is 38.18%.

Q: And the “Relative Free Radical Scavenging Activity (%) on ABTS” value ([2]; 50.0 μM)?
A: Its value is 67.14%.

Q: What about the “Relative Free Radical Scavenging Activity (%) on ABTS” value ([2]; 100.0 μM) of the same compound?
A: Its value is 99.71%.

Q: What about the “% Breakage” value ([1]; 5 mM compound) of the same compound?
A: Its value is 85.31%.

Q: Which “% Breakage” value ([1]; 10 mM compound) does the source give for `O=C(C[n+]1cccc(-c2cc(Cc3ccccc3)nn2-c2ccccc2)c1)NC1CC1.[Cl-]` [Compound 15, 1-(2-Cyclopropylamino-2-oxoethyl) 3-[(1-phenyl-3-phenylmethyl)pyrazol-5-yl]-pyridinium chloride] here?
A: The value was 80.03%.

Q: Which “Relative Free Radical Scavenging Activity (%) on ABTS” value ([2]; 12.5 μM) does the source give for `Cc1ccc(C(=O)C[n+]2cccc(-c3cc(CCC4CCCCC4)n[nH]3)c2)s1.[Cl-]` [Compound 20] here?
A: The value was 6.15%.

Q: What about the “Relative Free Radical Scavenging Activity (%) on ABTS” value ([2]; 25.0 μM) of the same compound?
A: The value was 9.06%.

Q: What about the “Relative Free Radical Scavenging Activity (%) on ABTS” value ([2]; 50.0 μM) of the same compound?
A: The value was 34.31%.

Q: And the “Relative Free Radical Scavenging Activity (%) on ABTS” value ([2]; 100.0 μM)?
A: Its value is 57.75%.

Q: Which “% Breakage” value ([1]; 10 mM compound) does the source give for `Cl.c1ccc(OCc2cc(-c3cccnc3)[nH]n2)cc1` [Compound 40, 3-[(3-Phenoxymethyl)pyrazol-5-yl]pyridine hydrochloride] here?
A: Its value is 66.06%.

Q: Which “Relative Free Radical Scavenging Activity (%) on ABTS” value ([2]; 12.5 μM) does the source give for `O=C(C[n+]1cccc(-c2cc(CCC3CCCCC3)nn2-c2ccccc2)c1)c1cccs1.[Br-]` [Compound 37, 1-(2-Thien-2′-yl-2-oxoethyl)-3-[1-phenyl-3-(2-cyclohexylethyl)pyrazol-5-yl]pyridinium bromide] here?
A: Its value is 21.79%.

Q: What about the “Relative Free Radical Scavenging Activity (%) on ABTS” value ([2]; 25.0 μM) of the same compound?
A: The value was 37.92%.

Q: What about the “Relative Free Radical Scavenging Activity (%) on ABTS” value ([2]; 50.0 μM) of the same compound?
A: The value was 41.95%.

Q: And the “Relative Free Radical Scavenging Activity (%) on ABTS” value ([2]; 100.0 μM)?
A: The value was 39.46%.

Q: And the “% Breakage” value ([1]; 10 mM compound)?
A: The value was 85.45%.

Q: With “1-(2-Cyclopropylamino-2-oxoethyl)-3-[(1-cyclohexyl-3-phenylmethyl)pyrazol-5-yl]pyridinium chloride [Compound 23]” as the compound, how does the “% Breakage” value ([1]; 10 mM compound) read?
A: Its value is 53.29%.

Q: Which results are given for `Cc1ccc(C(=O)C[n+]2cccc(-c3cc(Cc4ccccc4)n[nH]3)c2)s1.[Cl-]` [Compound 12, 1-(2-(5-Methyl-2-Thienyl)-2-oxoethyl)-3-[(3-phenylmethyl)pyrazol-5-yl]pyridinium chloride]?
A: Relative Free Radical Scavenging Activity (%) on ABTS ([2]; 12.5 μM): 22.34%; Relative Free Radical Scavenging Activity (%) on ABTS ([2]; 25.0 μM): 40.97%; Relative Free Radical Scavenging Activity (%) on ABTS ([2]; 50.0 μM): 71.47%; Relative Free Radical Scavenging Activity (%) on ABTS ([2]; 100.0 μM): 84.62%; % Breakage ([1]; 10 mM compound): 89.23%
